Data on four compounds can be found in paper PMC11300463, “Structure basis for sugar specificity of gustatory receptors in insects” (Cell Discovery, 2024).

A word on the EC50: it is the concentration that produces a half-maximal response.

Format in all cases: cell-based
Assay [1] has as its target T1, DmGr64a (Drosophila melanogaster, UniProt P83293).
T1 construct: gene Gr64a; expressed in HEK293 cells for function; purified homotetramer for cryo-EM; residues Y234, W260, F333, L338, L339, F342, E399, F403, I420, V438, L439, Q441
T1 sequence (P83293 1-456): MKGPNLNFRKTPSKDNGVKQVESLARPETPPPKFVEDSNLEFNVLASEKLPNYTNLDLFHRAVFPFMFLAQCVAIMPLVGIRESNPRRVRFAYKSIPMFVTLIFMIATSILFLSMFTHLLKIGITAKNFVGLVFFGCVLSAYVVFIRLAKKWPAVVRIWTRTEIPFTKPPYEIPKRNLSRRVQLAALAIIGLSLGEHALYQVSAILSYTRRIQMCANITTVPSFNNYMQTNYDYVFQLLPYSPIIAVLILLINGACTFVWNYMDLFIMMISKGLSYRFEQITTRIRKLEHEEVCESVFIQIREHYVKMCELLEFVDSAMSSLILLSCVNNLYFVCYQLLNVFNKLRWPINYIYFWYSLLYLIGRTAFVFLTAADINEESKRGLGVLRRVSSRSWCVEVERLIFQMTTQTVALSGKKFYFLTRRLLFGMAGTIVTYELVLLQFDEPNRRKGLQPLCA
In words: calcium imaging, HEK293 cells. The note with it: activation.

In a further assay the target is T2, DmoGr43a (Drosophila mojavensis, UniProt B4KNE2).
T2 construct: gene Dmoj\GI20824; expressed in HEK293 cells for function; purified homotetramer for cryo-EM; printed residues R70, Y312, F313, F315, L386, I418, L419, I420, F422
T2 sequence (B4KNE2 1-427): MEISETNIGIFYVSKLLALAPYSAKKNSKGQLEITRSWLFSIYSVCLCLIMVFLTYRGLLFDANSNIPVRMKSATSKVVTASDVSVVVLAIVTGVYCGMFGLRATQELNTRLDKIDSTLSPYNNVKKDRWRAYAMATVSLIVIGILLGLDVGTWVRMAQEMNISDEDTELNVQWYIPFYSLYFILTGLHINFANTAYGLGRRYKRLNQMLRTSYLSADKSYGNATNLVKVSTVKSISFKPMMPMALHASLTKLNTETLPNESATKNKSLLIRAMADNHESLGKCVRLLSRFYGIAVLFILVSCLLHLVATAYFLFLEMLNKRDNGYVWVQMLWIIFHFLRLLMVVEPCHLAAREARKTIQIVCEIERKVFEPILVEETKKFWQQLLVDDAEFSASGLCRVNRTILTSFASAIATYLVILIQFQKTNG
In words: electrophysiology, HEK293 cells. The note with it: activation; also calcium imaging; cryo-EM structure of complex.

For assay [2], the target named is T1, DmGr64a. The assay is described as follows: calcium imaging, HEK293 cells.

On to `OCC1(O)OC[C@@H](O)[C@@H](O)[C@@H]1O` (some centres unmarked) [fructose], for which the “calcium imaging, HEK293 cells” value at DmGr64a [1] is “several sugars including fructose, trehalose, sucrose and maltose were able to activate DmGr64a”. Moreover, at DmoGr43a, the EC50 is 43 ± 4.69 mM.
Consider `OC[C@H]1O[C@H](O[C@H]2[C@H](O)[C@@H](O)C(O)O[C@@H]2CO)[C@H](O)[C@@H](O)[C@@H]1O` (some centres unmarked) [maltose], for which, on DmGr64a [1], the “calcium imaging, HEK293 cells” value is “several sugars including fructose, trehalose, sucrose and maltose were able to activate DmGr64a”.
On to `OC[C@H]1O[C@@](CO)(O[C@H]2O[C@H](CO)[C@@H](O)[C@H](O)[C@H]2O)[C@@H](O)[C@@H]1O` [sucrose], for which, at DmGr64a [2], the EC50 was ~1.77 mM.
On to `OC[C@H]1O[C@H](O[C@H]2O[C@H](CO)[C@@H](O)[C@H](O)[C@H]2O)[C@H](O)[C@@H](O)[C@@H]1O` [trehalose], for which the “calcium imaging, HEK293 cells” value at DmGr64a [1] was “several sugars including fructose, trehalose, sucrose and maltose were able to activate DmGr64a”.
